Measured values: PubChem BioAssay AID1259407 (Chemical Carcinogenesis Research Information System (CCRIS), 2018)
The source made the active and inactive calls. No rule for the calls is given here.

Test system: CCRIS mutagenicity, Ames/micronucleus/aberration tests
Experiment: CCRIS mutagenicity studies
[1] = Test System: AMES SALMONELLA TYPHIMURIUM, Strain/Indicator: TA98, Metabolic Activation: NONE, Method: STANDARD PLATE
[2] = Test System: AMES SALMONELLA TYPHIMURIUM, Strain/Indicator: TA100, Metabolic Activation: NONE, Method: STANDARD PLATE
[3] = Test System: AMES SALMONELLA TYPHIMURIUM, Strain/Indicator: TA1535, Metabolic Activation: NONE, Method: STANDARD PLATE
[4] = Test System: AMES SALMONELLA TYPHIMURIUM, Strain/Indicator: TA1537, Metabolic Activation: NONE, Method: STANDARD PLATE
[5] = Test System: E. COLI, Strain/Indicator: WP2 UVRA, Metabolic Activation: NONE, Method: STANDARD PLATE
[6] = Test System: AMES SALMONELLA TYPHIMURIUM, Strain/Indicator: TA98, Metabolic Activation: RAT, LIVER, S-9, AROCLOR 1254, Method: PREINCUBATION
[7] = Test System: AMES SALMONELLA TYPHIMURIUM, Strain/Indicator: TA100, Metabolic Activation: RAT, LIVER, S-9, AROCLOR 1254, Method: PREINCUBATION
[8] = Test System: AMES SALMONELLA TYPHIMURIUM, Strain/Indicator: TA98, Metabolic Activation: RAT, LIVER, S-9, AROCLOR 1254, Method: STANDARD PLATE
[9] = Test System: AMES SALMONELLA TYPHIMURIUM, Strain/Indicator: TA100, Metabolic Activation: RAT, LIVER, S-9, AROCLOR 1254, Method: STANDARD PLATE

Measured: mutagenic call

CN(C)CCCNc1c2ccccc2nc2ccc([N+](=O)[O-])cc12
inactive: Test System: CHINESE HAMSTER V-79, Strain/Indicator: V-79/6-THIOGUANINE, Metabolic Activation: NONE, Method: STANDARD PLATE inactive; negative | Test System: CHINESE HAMSTER V-79, Strain/Indicator: V-79/OUABAIN, Metabolic Activation: NONE, Method: STANDARD PLATE inactive; negative
active: Test System: AMES SALMONELLA TYPHIMURIUM, Strain/Indicator: TA98(1,8-DNP6), Metabolic Activation: NONE, Method: STANDARD PLATE active; positive | Test System: AMES SALMONELLA TYPHIMURIUM, Strain/Indicator: TA98(1,8-DNP6), Metabolic Activation: RAT, LIVER, S-9, Method: STANDARD PLATE active; positive | Test System: AMES SALMONELLA TYPHIMURIUM, Strain/Indicator: TA98(NR), Metabolic Activation: NONE, Method: STANDARD PLATE active; positive | Test System: AMES SALMONELLA TYPHIMURIUM, Strain/Indicator: TA98(NR), Metabolic Activation: RAT, LIVER, S-9, Method: STANDARD PLATE active; positive | [1] active; positive | Test System: AMES SALMONELLA TYPHIMURIUM, Strain/Indicator: TA98, Metabolic Activation: RAT, LIVER, S-9, Method: STANDARD PLATE active; positive | [2] active; positive | [3] active; positive | [4] active; positive | Test System: AMES SALMONELLA TYPHIMURIUM, Strain/Indicator: TA1537 PKM101, Metabolic Activation: NONE, Method: STANDARD PLATE active; positive | Test System: AMES SALMONELLA TYPHIMURIUM, Strain/Indicator: TA1538, Metabolic Activation: NONE, Method: STANDARD PLATE active; positive | Test System: Escherichia coli, Strain/Indicator: CC107 (G6 to G7 frameshifts), Metabolic Activation: None, Method: Modified preincubation active; positive | Test System: Escherichia coli, Strain/Indicator: CC108 (G6 to G5 frameshifts), Metabolic Activation: None, Method: Modified preincubation active; positive | Test System: Escherichia coli, Strain/Indicator: CC109 (CG5 to CG4 frameshifts), Metabolic Activation: None, Method: Modified preincubation active; positive | Test System: Escherichia coli, Strain/Indicator: CC111 (A7 to A6 frameshifts), Metabolic Activation: None, Method: Modified preincubation active; positive

O=C1c2c(O)ccc(O)c2C(=O)c2c(NCCO)ccc(NCCO)c21
active: Test System: MOUSE LYMPHOMA, Strain/Indicator: L5178Y (TK+/TK-), Metabolic Activation: NONE, Method: SUSPENSION/PLATE active; positive

Nc1nc(Cl)c2[nH]cnc2n1
active: [2] active; positive

O=C(O)C(=O)Nc1cccc(-c2nn[nH]n2)c1
inactive: [1] inactive; negative | Test System: AMES SALMONELLA TYPHIMURIUM, Strain/Indicator: TA98, Metabolic Activation: RAT, LIVER, S-9, PHENOBARBITAL AND 5,6-BENZOFLAVONE, Method: STANDARD PLATE inactive; negative | [2] inactive; negative | Test System: AMES SALMONELLA TYPHIMURIUM, Strain/Indicator: TA100, Metabolic Activation: RAT, LIVER, S-9, PHENOBARBITAL AND 5,6-BENZOFLAVONE, Method: STANDARD PLATE inactive; negative | [3] inactive; negative | Test System: AMES SALMONELLA TYPHIMURIUM, Strain/Indicator: TA1535, Metabolic Activation: RAT, LIVER, S-9, PHENOBARBITAL AND 5,6-BENZOFLAVONE, Method: STANDARD PLATE inactive; negative | [4] inactive; negative | Test System: AMES SALMONELLA TYPHIMURIUM, Strain/Indicator: TA1537, Metabolic Activation: RAT, LIVER, S-9, PHENOBARBITAL AND 5,6-BENZOFLAVONE, Method: STANDARD PLATE inactive; negative | [5] inactive; negative

COc1ccc2c3c([nH]c2c1)C(C)=NCC3
inactive: Test System: AMES SALMONELLA TYPHIMURIUM, Strain/Indicator: TA97, Metabolic Activation: NONE, Method: PREINCUBATION inactive; negative | Test System: AMES SALMONELLA TYPHIMURIUM, Strain/Indicator: TA97, Metabolic Activation: RAT, LIVER, S-9, AROCLOR 1254, Method: PREINCUBATION inactive; negative | Test System: AMES SALMONELLA TYPHIMURIUM, Strain/Indicator: TA98, Metabolic Activation: NONE, Method: PREINCUBATION inactive; negative | [6] inactive; negative | Test System: AMES SALMONELLA TYPHIMURIUM, Strain/Indicator: TA100, Metabolic Activation: NONE, Method: PREINCUBATION inactive; negative | [7] inactive; negative | Test System: AMES SALMONELLA TYPHIMURIUM, Strain/Indicator: TA102, Metabolic Activation: NONE, Method: PREINCUBATION inactive; negative | Test System: AMES SALMONELLA TYPHIMURIUM, Strain/Indicator: TA102, Metabolic Activation: RAT, LIVER, S-9, AROCLOR 1254, Method: PREINCUBATION inactive; negative

CC(=O)CC1CCC(=O)/C=C\C(=O)OC(CC(C)=O)CCC(=O)/C=C\C(=O)O1 (centres undefined)
active: Test System: CHINESE HAMSTER V-79, Strain/Indicator: V-79 (HPRT)/6-THIOGUANINE, Metabolic Activation: NONE active; positive | Test System: CHINESE HAMSTER V-79, Strain/Indicator: V-79 (HPRT)/6-THIOGUANINE, Metabolic Activation: RAT, LIVER, S-9, 3-METHYLCHOLANTHRENE active; positive

C[C@H]1[C@H](C)CC[C@]2(C(=O)O[C@@H]3O[C@H](CO[C@@H]4O[C@H](CO)[C@@H](O[C@@H]5O[C@@H](C)[C@H](O)[C@@H](O)[C@H]5O)[C@H](O)[C@H]4O)[C@@H](O)[C@H](O)[C@H]3O)CC[C@]3(C)C(=CC[C@@H]4[C@@]5(C)C[C@@H](O)[C@H](O)[C@@](C)(CO)[C@@H]5CC[C@]43C)[C@H]12
inactive: End Point: IN VITRO CHROMOSOMAL ABERRATIONS, Test System: CHL CELLS, Metabolic Activation: NONE inactive; negative | End Point: IN VITRO CHROMOSOMAL ABERRATIONS, Test System: CHL CELLS, Metabolic Activation: RAT, LIVER, S-9, AROCLOR 1254 inactive; negative | End Point: IN VIVO MICRONUCLEUS, Test System: BONE MARROW, Species: MOUSE, Strain/Sex: ICR, Route: GAVAGE inactive; negative | [1] inactive; negative | [8] inactive; negative | [2] inactive; negative | [9] inactive; negative | [3] inactive; negative | Test System: AMES SALMONELLA TYPHIMURIUM, Strain/Indicator: TA1535, Metabolic Activation: RAT, LIVER, S-9, AROCLOR 1254, Method: STANDARD PLATE inactive; negative | [4] inactive; negative | Test System: AMES SALMONELLA TYPHIMURIUM, Strain/Indicator: TA1537, Metabolic Activation: RAT, LIVER, S-9, AROCLOR 1254, Method: STANDARD PLATE inactive; negative | Test System: E. COLI, Strain/Indicator: WP2UVRA, Metabolic Activation: RAT, LIVER, S-9, AROCLOR 1254, Method: STANDARD PLATE inactive; negative | Test System: E.COLI, Strain/Indicator: WP2UVRA, Metabolic Activation: NONE, Method: STANDARD PLATE inactive; negative

NNCCO
active: Test System: E. COLI, Strain/Indicator: WP2, Metabolic Activation: NONE, Method: STANDARD PLATE active; positive | Test System: E. COLI, Strain/Indicator: WP2, Metabolic Activation: RAT, LIVER, Method: STANDARD PLATE active; positive | Test System: E. COLI, Strain/Indicator: WP2HCR, Metabolic Activation: NONE, Method: STANDARD PLATE active; positive | Test System: E. COLI, Strain/Indicator: WP2HCR, Metabolic Activation: S-9 MIX, Method: STANDARD PLATE active; positive | [5] active; positive

Cc1nn(C)c(N)c1C(=O)c1ccccc1F
active: [6] active; positive | [8] active; positive | Test System: AMES SALMONELLA TYPHIMURIUM, Strain/Indicator: TA98, Metabolic Activation: RAT, LIVER, S-9, PHENOBARBITAL, Method: PREINCUBATION active; positive | [7] active; positive | [9] active; positive | Test System: AMES SALMONELLA TYPHIMURIUM, Strain/Indicator: TA100, Metabolic Activation: RAT, LIVER, S-9, PHENOBARBITAL, Method: PREINCUBATION active; positive

CC(C)CN(N=O)C(N)=O
active: Test System: E. COLI B, Strain/Indicator: H/R30R, Metabolic Activation: NONE active; positive | Test System: E. COLI B, Strain/Indicator: HS30R, Metabolic Activation: NONE active; positive
